Literature values as cited in patent publication US20130184354A1, “Silicone and Hylauronic Acid (HLA) Delivery Systems for Products by Sustainable Processes for Medical Uses Including Wound Management” (priority 2012, published 2013).

How the values were obtained:
[1] = target: CB2 receptors (Homo sapiens, UniProt P34972)
[2] = compared with THC

Sequence of CB2 receptors (P34972 whole entry): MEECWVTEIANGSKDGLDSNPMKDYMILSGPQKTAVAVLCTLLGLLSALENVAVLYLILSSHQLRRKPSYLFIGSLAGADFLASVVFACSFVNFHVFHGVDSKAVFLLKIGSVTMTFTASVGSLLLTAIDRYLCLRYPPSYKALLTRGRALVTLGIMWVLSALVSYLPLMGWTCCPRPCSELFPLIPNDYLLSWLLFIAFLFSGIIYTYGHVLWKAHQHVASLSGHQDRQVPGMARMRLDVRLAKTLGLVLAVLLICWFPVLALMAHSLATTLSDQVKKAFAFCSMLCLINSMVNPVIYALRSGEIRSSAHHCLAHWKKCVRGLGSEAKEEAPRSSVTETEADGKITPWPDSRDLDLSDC

SMILES | affinity for CB2 receptors [1] | potency relative to THC [2]
C=C(C)[C@@H]1CCC(C)=C[C@H]1c1c(O)cc(CCCCC)cc1O [Cannabidiol] | no affinity | 
CCCCCCC(C)(C)c1cc(O)c2c(c1)OC(C)(C)[C@@H]1CC=C(CO)C[C@@H]21 [HU-210] |  | about 100 times
